How the values were obtained:
Test in all cases: biochemical
Type in all cases: biochemical
[1] = biological target: T1, 363 human kinases (including Aurora A/B/C) (Homo sapiens, UniProt P29323); conditions: EPHB2, [ATP] 30 µM; for remaining activity at 0.1 µM: 100 nM; for remaining activity at 0.1 µM / remaining activity at 0.5 µM: read-out: % Enzyme Activity (relative to DMSO controls)
T1 sequence (P29323 19-1055): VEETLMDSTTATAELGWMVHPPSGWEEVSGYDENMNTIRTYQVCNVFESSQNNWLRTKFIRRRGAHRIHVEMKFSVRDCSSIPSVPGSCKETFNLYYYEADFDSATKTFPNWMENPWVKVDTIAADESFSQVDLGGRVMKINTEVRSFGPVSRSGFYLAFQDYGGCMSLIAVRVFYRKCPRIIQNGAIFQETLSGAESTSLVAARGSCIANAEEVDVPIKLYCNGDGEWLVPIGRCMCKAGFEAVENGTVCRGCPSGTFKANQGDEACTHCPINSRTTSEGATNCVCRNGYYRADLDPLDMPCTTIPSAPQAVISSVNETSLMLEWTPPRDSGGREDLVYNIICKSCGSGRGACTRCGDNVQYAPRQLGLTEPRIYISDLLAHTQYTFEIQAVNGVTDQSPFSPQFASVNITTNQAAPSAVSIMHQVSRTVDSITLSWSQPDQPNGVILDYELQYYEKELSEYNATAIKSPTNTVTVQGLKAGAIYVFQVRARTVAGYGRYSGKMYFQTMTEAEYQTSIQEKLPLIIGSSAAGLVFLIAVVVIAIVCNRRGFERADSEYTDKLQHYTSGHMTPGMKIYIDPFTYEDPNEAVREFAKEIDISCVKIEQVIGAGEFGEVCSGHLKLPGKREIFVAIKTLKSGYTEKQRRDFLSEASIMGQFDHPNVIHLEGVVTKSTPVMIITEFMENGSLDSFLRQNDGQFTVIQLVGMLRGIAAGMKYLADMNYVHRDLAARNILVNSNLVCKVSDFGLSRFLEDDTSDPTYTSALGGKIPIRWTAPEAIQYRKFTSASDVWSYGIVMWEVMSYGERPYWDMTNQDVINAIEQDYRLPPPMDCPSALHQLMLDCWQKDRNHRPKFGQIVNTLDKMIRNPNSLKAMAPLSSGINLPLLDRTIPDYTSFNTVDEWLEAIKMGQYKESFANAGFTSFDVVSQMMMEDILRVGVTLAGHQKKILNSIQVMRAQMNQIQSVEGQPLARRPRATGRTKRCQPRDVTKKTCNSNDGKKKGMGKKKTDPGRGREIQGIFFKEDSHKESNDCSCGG
Description: (§1) However, the Aurora A/B selectivity ratios derived from our in vitro and in vivo data can be compared to prioritize inhibitors.

[2] = biological target: 363 human kinases (including Aurora A/B/C) (Homo sapiens, UniProt P09769); conditions: FGR, [ATP] 50 µM; for remaining activity at 0.1 µM: 100 nM; for remaining activity at 0.1 µM / remaining activity at 0.5 µM: read-out: % Enzyme Activity (relative to DMSO controls)
Description: as §1

[3] = biological target: 363 human kinases (including Aurora A/B/C) (Homo sapiens, UniProt P30291); conditions: WEE1; for remaining activity at 0.1 µM: 100 nM; for remaining activity at 0.1 µM / remaining activity at 0.5 µM: read-out: % Enzyme Activity (relative to DMSO controls)
Description: as §1

[4] = biological target: 363 human kinases (including Aurora A/B/C) (Homo sapiens, UniProt P29317); conditions: EPHA2, [ATP] 50 µM; for remaining activity at 0.1 µM: 100 nM; for remaining activity at 0.1 µM / remaining activity at 0.5 µM: read-out: % Enzyme Activity (relative to DMSO controls)
Description: as §1

[5] = biological target: T2, 363 human kinases (including Aurora A/B/C) (Homo sapiens, UniProt Q13470); conditions: TNK1; for remaining activity at 0.1 µM: 100 nM; for remaining activity at 0.1 µM / remaining activity at 0.5 µM: read-out: % Enzyme Activity (relative to DMSO controls)
T2 sequence (Q13470 1-666): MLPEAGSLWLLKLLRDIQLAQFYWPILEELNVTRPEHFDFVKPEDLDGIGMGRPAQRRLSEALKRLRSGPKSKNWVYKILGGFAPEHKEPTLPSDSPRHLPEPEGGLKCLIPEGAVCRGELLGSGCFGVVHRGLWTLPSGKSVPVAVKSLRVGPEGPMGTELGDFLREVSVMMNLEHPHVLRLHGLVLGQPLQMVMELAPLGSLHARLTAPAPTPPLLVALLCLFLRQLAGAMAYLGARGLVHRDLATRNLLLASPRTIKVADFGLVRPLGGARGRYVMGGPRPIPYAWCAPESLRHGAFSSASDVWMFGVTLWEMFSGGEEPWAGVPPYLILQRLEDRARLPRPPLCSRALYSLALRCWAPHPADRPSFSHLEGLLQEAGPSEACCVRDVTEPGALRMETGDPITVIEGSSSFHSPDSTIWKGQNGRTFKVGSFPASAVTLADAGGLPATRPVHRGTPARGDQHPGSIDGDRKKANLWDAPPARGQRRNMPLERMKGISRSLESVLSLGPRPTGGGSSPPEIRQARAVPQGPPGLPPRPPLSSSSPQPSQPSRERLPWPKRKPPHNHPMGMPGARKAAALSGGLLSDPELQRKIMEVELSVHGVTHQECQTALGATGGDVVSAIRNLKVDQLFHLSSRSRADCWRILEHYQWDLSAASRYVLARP
Description: as §1

363 human kinases (including Aurora A/B/C) (Homo sapiens, UniProt P29317), sequence (P29317 24-976): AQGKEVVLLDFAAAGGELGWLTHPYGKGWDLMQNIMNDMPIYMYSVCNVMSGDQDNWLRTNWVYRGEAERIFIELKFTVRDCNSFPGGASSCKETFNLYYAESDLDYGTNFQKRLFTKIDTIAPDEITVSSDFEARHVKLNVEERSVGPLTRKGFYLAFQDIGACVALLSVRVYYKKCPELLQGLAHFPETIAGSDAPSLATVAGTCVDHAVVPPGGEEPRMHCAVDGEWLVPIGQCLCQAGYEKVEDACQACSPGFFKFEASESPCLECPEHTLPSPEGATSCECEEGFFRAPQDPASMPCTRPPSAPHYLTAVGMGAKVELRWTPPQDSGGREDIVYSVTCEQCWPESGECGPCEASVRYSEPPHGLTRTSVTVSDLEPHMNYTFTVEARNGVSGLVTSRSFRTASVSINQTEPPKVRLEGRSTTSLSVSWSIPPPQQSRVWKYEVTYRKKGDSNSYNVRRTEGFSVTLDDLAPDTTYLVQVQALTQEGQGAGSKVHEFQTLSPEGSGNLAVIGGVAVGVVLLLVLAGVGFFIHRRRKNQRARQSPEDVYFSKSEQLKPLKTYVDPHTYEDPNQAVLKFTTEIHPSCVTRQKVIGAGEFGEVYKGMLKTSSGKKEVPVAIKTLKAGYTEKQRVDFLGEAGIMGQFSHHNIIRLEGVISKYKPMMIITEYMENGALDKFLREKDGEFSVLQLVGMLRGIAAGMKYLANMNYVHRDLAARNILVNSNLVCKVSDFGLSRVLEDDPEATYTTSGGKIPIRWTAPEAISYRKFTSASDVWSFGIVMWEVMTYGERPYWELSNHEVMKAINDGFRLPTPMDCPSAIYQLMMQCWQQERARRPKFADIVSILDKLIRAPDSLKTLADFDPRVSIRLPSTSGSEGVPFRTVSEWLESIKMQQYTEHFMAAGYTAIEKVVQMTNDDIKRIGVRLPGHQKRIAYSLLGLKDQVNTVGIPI
363 human kinases (including Aurora A/B/C) (Homo sapiens, UniProt P30291), sequence (P30291 whole entry): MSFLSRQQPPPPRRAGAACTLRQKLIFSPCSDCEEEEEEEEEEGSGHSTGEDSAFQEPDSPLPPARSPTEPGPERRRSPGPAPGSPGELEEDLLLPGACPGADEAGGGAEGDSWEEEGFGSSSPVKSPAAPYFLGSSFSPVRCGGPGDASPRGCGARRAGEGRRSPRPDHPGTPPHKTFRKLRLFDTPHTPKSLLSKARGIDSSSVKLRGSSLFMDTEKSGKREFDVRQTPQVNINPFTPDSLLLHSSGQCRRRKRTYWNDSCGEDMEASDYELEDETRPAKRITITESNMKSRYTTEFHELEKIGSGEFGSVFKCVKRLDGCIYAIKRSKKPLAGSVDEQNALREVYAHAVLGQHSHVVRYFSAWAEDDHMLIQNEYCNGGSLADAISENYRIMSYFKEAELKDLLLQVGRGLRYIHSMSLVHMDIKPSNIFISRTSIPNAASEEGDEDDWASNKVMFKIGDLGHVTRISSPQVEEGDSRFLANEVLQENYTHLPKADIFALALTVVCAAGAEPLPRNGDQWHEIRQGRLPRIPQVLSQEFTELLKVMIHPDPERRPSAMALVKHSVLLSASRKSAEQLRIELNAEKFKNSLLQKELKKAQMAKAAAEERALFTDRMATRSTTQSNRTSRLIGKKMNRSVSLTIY
363 human kinases (including Aurora A/B/C) (Homo sapiens, UniProt P09769), sequence (P09769 whole entry): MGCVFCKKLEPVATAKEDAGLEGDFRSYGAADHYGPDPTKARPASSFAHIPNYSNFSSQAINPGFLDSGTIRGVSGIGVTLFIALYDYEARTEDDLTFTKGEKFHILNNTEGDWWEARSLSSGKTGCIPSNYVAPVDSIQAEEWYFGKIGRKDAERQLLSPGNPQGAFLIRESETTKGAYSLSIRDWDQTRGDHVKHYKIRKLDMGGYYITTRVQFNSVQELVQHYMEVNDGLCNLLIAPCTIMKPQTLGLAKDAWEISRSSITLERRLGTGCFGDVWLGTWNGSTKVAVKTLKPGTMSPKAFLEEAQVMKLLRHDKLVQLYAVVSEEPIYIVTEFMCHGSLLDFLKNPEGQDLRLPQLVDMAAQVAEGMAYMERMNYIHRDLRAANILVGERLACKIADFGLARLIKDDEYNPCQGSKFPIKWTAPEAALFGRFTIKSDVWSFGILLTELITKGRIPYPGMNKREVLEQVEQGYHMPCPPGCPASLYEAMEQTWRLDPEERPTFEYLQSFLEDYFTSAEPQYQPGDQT

CCn1cc(-c2ccnc3[nH]c(-c4cccc(CN(C)C)c4)cc23)c(-c2ccc(NC(=O)N(C)C)cc2)n1 [GSK1070916]
remaining activity at 0.1 µM [1]: 97.1%
remaining activity at 0.1 µM [2]: 97.8%
remaining activity at 0.1 µM [3]: 97%
remaining activity at 0.1 µM [4]: 92.7%
remaining activity at 0.1 µM [5]: 90.7%

O=C(O)[C@]1(Cc2cccc(Nc3nccs3)n2)CC[C@@H](Oc2cccc(Cl)c2F)CC1 [MK-5108]
remaining activity at 0.1 µM [1]: 59.4%
remaining activity at 0.5 µM ([1]; 500 nM): 32%
remaining activity at 0.1 µM [2]: 22.9%
remaining activity at 0.5 µM ([2]; 500 nM): 6.36%
remaining activity at 0.1 µM [3]: 106%
remaining activity at 0.5 µM ([3]; 500 nM): 93.4%
remaining activity at 0.1 µM [4]: 13.4%
remaining activity at 0.5 µM ([4]; 500 nM): 4.4%
remaining activity at 0.1 µM [5]: 22.9%
remaining activity at 0.5 µM ([5]; 500 nM): 6.3%

O=C(c1cccc(Cl)c1F)N1CCN(Cc2cccc(Nc3nccs3)n2)CC1 [MK-8745]
% Enzyme Activity (relative to DMSO controls) ([1]; 500 nM): 80.85%
remaining activity at 0.5 µM ([1]; 500 nM): 81.8%
% Enzyme Activity (relative to DMSO controls) ([2]; 500 nM): 35.97%
remaining activity at 0.5 µM ([2]; 500 nM): 36.3%
% Enzyme Activity (relative to DMSO controls) ([3]; 500 nM): 99.94%
remaining activity at 0.5 µM ([3]; 500 nM): 105%
% Enzyme Activity (relative to DMSO controls) ([4]; 500 nM): 62.60%
remaining activity at 0.5 µM ([4]; 500 nM): 63.4%
% Enzyme Activity (relative to DMSO controls) ([5]; 500 nM): 75.54%
remaining activity at 0.5 µM ([5]; 500 nM): 77.7%

Reference: PMC4685510, “A Cell Biologist’s Field Guide to Aurora Kinase Inhibitors” (Frontiers in Oncology, 2015)
